Assay results taken from US20110173718A1, “HERBICIDE TOLERANT PLANTS” (SYNGENTA CROP PROTECTION, INC., priority 2008, published 2011).

System: weeds
Assay: Glasshouse weed control by HST/HPPD (mesotrione) mixtures, pre-emergence
Type: in vivo
Details: for colby: Colby synergy score; for % Damage at 14 DAA, 1 g ai ha^−1 mesotrione / % Damage at 14 DAA, no-mesotrione: N = 3
Description: Weed seeds are planted out in trays containing suitable soil (for example 50% peat, 50% John Innes soil no 3) and grown in the glass house conditions under 24-27° C. day; 18-21° C. night and approximately a 14 h (or longer in UK summer) photoperiod. Humidity is ˜65% and light levels up to 2000 μmol/m^2 at bench level. Trays are sprayed with test chemicals dissolved in water with 0.2-0.25% X-77 surfactant and sprayed from a boom on a suitable track sprayer moving at about 2 mph in a suitable track sprayer (for example a DeVries spray chamber with the nozzle about 2 inches from the plant tops). Spray volume is suitably 500-1000 l/ha. Sprays are carried out both pre-emergence and over small plants at about 7-12 d post-emergence
Plants are assessed 14 DAT and herbicidal damage is scored on a scale from 0 to 100%. The HST inhibitor compound 2.30 (designated compound A in table 16 and 17), haloxydine (compound 1.1) and compound 2.13 (designated compound AE in tables 16 and 17) are sprayed at rates between 0 and 500 g/ha.

[1] = ALOMY, 16 g/ha + mesotrione 1 g ai/ha
[2] = ALOMY, 31 g/ha + mesotrione 1 g ai/ha
[3] = ALOMY, 63 g/ha + mesotrione 1 g ai/ha
[4] = ALOMY, 125 g/ha + mesotrione 1 g ai/ha
[5] = ALOMY, 250 g/ha + mesotrione 1 g ai/ha
[6] = ALOMY, 500 g/ha + mesotrione 1 g ai/ha
[7] = AMARE, 16 g/ha + mesotrione 1 g ai/ha
[8] = AMARE, 31 g/ha + mesotrione 1 g ai/ha
[9] = AMARE, 63 g/ha + mesotrione 1 g ai/ha
[10] = AMARE, 125 g/ha + mesotrione 1 g ai/ha
[11] = AMARE, 250 g/ha + mesotrione 1 g ai/ha
[12] = AMARE, 500 g/ha + mesotrione 1 g ai/ha
[13] = ECHCG, 16 g/ha + mesotrione 1 g ai/ha
[14] = ECHCG, 31 g/ha + mesotrione 1 g ai/ha
[15] = ECHCG, 63 g/ha + mesotrione 1 g ai/ha
[16] = ECHCG, 125 g/ha + mesotrione 1 g ai/ha
[17] = ECHCG, 250 g/ha + mesotrione 1 g ai/ha
[18] = ECHCG, 500 g/ha + mesotrione 1 g ai/ha
[19] = IPOHE, 16 g/ha + mesotrione 1 g ai/ha
[20] = IPOHE, 31 g/ha + mesotrione 1 g ai/ha
[21] = IPOHE, 63 g/ha + mesotrione 1 g ai/ha
[22] = IPOHE, 125 g/ha + mesotrione 1 g ai/ha
[23] = IPOHE, 250 g/ha + mesotrione 1 g ai/ha
[24] = IPOHE, 500 g/ha + mesotrione 1 g ai/ha
[25] = SETFA, 16 g/ha + mesotrione 1 g ai/ha
[26] = SETFA, 31 g/ha + mesotrione 1 g ai/ha
[27] = SETFA, 63 g/ha + mesotrione 1 g ai/ha
[28] = SETFA, 125 g/ha + mesotrione 1 g ai/ha
[29] = SETFA, 250 g/ha + mesotrione 1 g ai/ha
[30] = SETFA, 500 g/ha + mesotrione 1 g ai/ha
[31] = SOLNI, 16 g/ha + mesotrione 1 g ai/ha
[32] = SOLNI, 31 g/ha + mesotrione 1 g ai/ha
[33] = SOLNI, 63 g/ha + mesotrione 1 g ai/ha
[34] = SOLNI, 125 g/ha + mesotrione 1 g ai/ha
[35] = SOLNI, 250 g/ha + mesotrione 1 g ai/ha
[36] = SOLNI, 500 g/ha + mesotrione 1 g ai/ha

Q: With O=c1c(Cl)c(F)[nH]c(F)c1Cl [Haloxidine] as the compound, how does the colby [1] read?
A: 5%

Q: What about the “% Damage at 14 DAA, 1 g ai ha^−1 mesotrione” value [1] of the same compound?
A: 8%

Q: What about the “% Damage at 14 DAA, no-mesotrione” value (ALOMY, 16 g/ha) of the same compound?
A: 3%

Q: And the colby [2]?
A: 12%

Q: What about the “% Damage at 14 DAA, 1 g ai ha^−1 mesotrione” value [2] of the same compound?
A: 25%

Q: And the “% Damage at 14 DAA, no-mesotrione” value (ALOMY, 31 g/ha)?
A: 13%

Q: And the colby [3]?
A: 8%

Q: And the “% Damage at 14 DAA, 1 g ai ha^−1 mesotrione” value [3]?
A: 50%

Q: And the “% Damage at 14 DAA, no-mesotrione” value (ALOMY, 63 g/ha)?
A: 42%

Q: And the colby [4]?
A: 10%

Q: What about the “% Damage at 14 DAA, 1 g ai ha^−1 mesotrione” value [4] of the same compound?
A: 77%

Q: What about the “% Damage at 14 DAA, no-mesotrione” value (ALOMY, 125 g/ha) of the same compound?
A: 67%

Q: And the colby [5]?
A: −3%

Q: What about the “% Damage at 14 DAA, 1 g ai ha^−1 mesotrione” value [5] of the same compound?
A: 78%

Q: And the “% Damage at 14 DAA, no-mesotrione” value (ALOMY, 250 g/ha)?
A: 82%

Q: What about the colby [6] of the same compound?
A: −2%

Q: What about the “% Damage at 14 DAA, 1 g ai ha^−1 mesotrione” value [6] of the same compound?
A: 83%

Q: What about the “% Damage at 14 DAA, no-mesotrione” value (ALOMY, 500 g/ha) of the same compound?
A: 85%

Q: What about the colby [7] of the same compound?
A: 2%

Q: And the “% Damage at 14 DAA, 1 g ai ha^−1 mesotrione” value [7]?
A: 42%

Q: And the “% Damage at 14 DAA, no-mesotrione” value (AMARE, 16 g/ha)?
A: 38%

Q: What about the colby [8] of the same compound?
A: 1%

Q: And the “% Damage at 14 DAA, 1 g ai ha^−1 mesotrione” value [8]?
A: 75%

Q: What about the “% Damage at 14 DAA, no-mesotrione” value (AMARE, 31 g/ha) of the same compound?
A: 73%

Q: And the colby [9]?
A: 5%

Q: And the “% Damage at 14 DAA, 1 g ai ha^−1 mesotrione” value [9]?
A: 93%

Q: What about the “% Damage at 14 DAA, no-mesotrione” value (AMARE, 63 g/ha) of the same compound?
A: 88%

Q: What about the colby [10] of the same compound?
A: 0%

Q: And the “% Damage at 14 DAA, 1 g ai ha^−1 mesotrione” value [10]?
A: 100%

Q: And the “% Damage at 14 DAA, no-mesotrione” value (AMARE, 125 g/ha)?
A: 100%

Q: What about the colby [11] of the same compound?
A: 0%

Q: And the “% Damage at 14 DAA, 1 g ai ha^−1 mesotrione” value [11]?
A: 100%

Q: What about the “% Damage at 14 DAA, no-mesotrione” value (AMARE, 250 g/ha) of the same compound?
A: 100%

Q: What about the colby [12] of the same compound?
A: 0%

Q: And the “% Damage at 14 DAA, 1 g ai ha^−1 mesotrione” value [12]?
A: 100%

Q: And the “% Damage at 14 DAA, no-mesotrione” value (AMARE, 500 g/ha)?
A: 100%

Q: What about the colby [13] of the same compound?
A: 7%

Q: And the “% Damage at 14 DAA, 1 g ai ha^−1 mesotrione” value [13]?
A: 20%

Q: And the “% Damage at 14 DAA, no-mesotrione” value (ECHCG, 16 g/ha)?
A: 13%

Q: What about the colby [14] of the same compound?
A: −2%

Q: And the “% Damage at 14 DAA, 1 g ai ha^−1 mesotrione” value [14]?
A: 23%

Q: And the “% Damage at 14 DAA, no-mesotrione” value (ECHCG, 31 g/ha)?
A: 25%

Q: What about the colby [15] of the same compound?
A: 13%

Q: And the “% Damage at 14 DAA, 1 g ai ha^−1 mesotrione” value [15]?
A: 53%

Q: What about the “% Damage at 14 DAA, no-mesotrione” value (ECHCG, 63 g/ha) of the same compound?
A: 40%

Q: What about the colby [16] of the same compound?
A: 5%

Q: And the “% Damage at 14 DAA, 1 g ai ha^−1 mesotrione” value [16]?
A: 78%

Q: And the “% Damage at 14 DAA, no-mesotrione” value (ECHCG, 125 g/ha)?
A: 73%

Q: What about the colby [17] of the same compound?
A: −8%

Q: And the “% Damage at 14 DAA, 1 g ai ha^−1 mesotrione” value [17]?
A: 83%

Q: And the “% Damage at 14 DAA, no-mesotrione” value (ECHCG, 250 g/ha)?
A: 92%

Q: And the colby [18]?
A: 7%

Q: What about the “% Damage at 14 DAA, 1 g ai ha^−1 mesotrione” value [18] of the same compound?
A: 95%

Q: And the “% Damage at 14 DAA, no-mesotrione” value (ECHCG, 500 g/ha)?
A: 88%

Q: What about the colby [19] of the same compound?
A: 0%

Q: And the “% Damage at 14 DAA, 1 g ai ha^−1 mesotrione” value [19]?
A: 0%

Q: What about the “% Damage at 14 DAA, no-mesotrione” value (IPOHE, 16 g/ha) of the same compound?
A: 0%

Q: What about the colby [20] of the same compound?
A: 0%

Q: What about the “% Damage at 14 DAA, 1 g ai ha^−1 mesotrione” value [20] of the same compound?
A: 0%

Q: And the “% Damage at 14 DAA, no-mesotrione” value (IPOHE, 31 g/ha)?
A: 0%

Q: And the colby [21]?
A: −7%

Q: And the “% Damage at 14 DAA, 1 g ai ha^−1 mesotrione” value [21]?
A: 8%

Q: What about the “% Damage at 14 DAA, no-mesotrione” value (IPOHE, 63 g/ha) of the same compound?
A: 15%

Q: And the colby [22]?
A: −10%

Q: And the “% Damage at 14 DAA, 1 g ai ha^−1 mesotrione” value [22]?
A: 52%

Q: And the “% Damage at 14 DAA, no-mesotrione” value (IPOHE, 125 g/ha)?
A: 62%

Q: And the colby [23]?
A: −13%

Q: And the “% Damage at 14 DAA, 1 g ai ha^−1 mesotrione” value [23]?
A: 67%

Q: What about the “% Damage at 14 DAA, no-mesotrione” value (IPOHE, 250 g/ha) of the same compound?
A: 80%

Q: And the colby [24]?
A: 3%

Q: What about the “% Damage at 14 DAA, 1 g ai ha^−1 mesotrione” value [24] of the same compound?
A: 87%

Q: What about the “% Damage at 14 DAA, no-mesotrione” value (IPOHE, 500 g/ha) of the same compound?
A: 83%

Q: And the colby [25]?
A: 10%

Q: And the “% Damage at 14 DAA, 1 g ai ha^−1 mesotrione” value [25]?
A: 10%

Q: And the “% Damage at 14 DAA, no-mesotrione” value (SETFA, 16 g/ha)?
A: 0%

Q: What about the colby [26] of the same compound?
A: 7%

Q: What about the “% Damage at 14 DAA, 1 g ai ha^−1 mesotrione” value [26] of the same compound?
A: 32%

Q: And the “% Damage at 14 DAA, no-mesotrione” value (SETFA, 31 g/ha)?
A: 25%

Q: And the colby [27]?
A: 8%

Q: And the “% Damage at 14 DAA, 1 g ai ha^−1 mesotrione” value [27]?
A: 58%

Q: And the “% Damage at 14 DAA, no-mesotrione” value (SETFA, 63 g/ha)?
A: 50%

Q: And the colby [28]?
A: 2%

Q: And the “% Damage at 14 DAA, 1 g ai ha^−1 mesotrione” value [28]?
A: 90%

Q: What about the “% Damage at 14 DAA, no-mesotrione” value (SETFA, 125 g/ha) of the same compound?
A: 88%

Q: And the colby [29]?
A: 0%

Q: What about the “% Damage at 14 DAA, 1 g ai ha^−1 mesotrione” value [29] of the same compound?
A: 95%

Q: And the “% Damage at 14 DAA, no-mesotrione” value (SETFA, 250 g/ha)?
A: 95%

Q: And the colby [30]?
A: 2%

Q: And the “% Damage at 14 DAA, 1 g ai ha^−1 mesotrione” value [30]?
A: 98%

Q: And the “% Damage at 14 DAA, no-mesotrione” value (SETFA, 500 g/ha)?
A: 97%

Q: What about the colby [31] of the same compound?
A: 30%

Q: And the “% Damage at 14 DAA, 1 g ai ha^−1 mesotrione” value [31]?
A: 47%

Q: And the “% Damage at 14 DAA, no-mesotrione” value (SOLNI, 16 g/ha)?
A: 0%

Q: And the colby [32]?
A: 21%

Q: What about the “% Damage at 14 DAA, 1 g ai ha^−1 mesotrione” value [32] of the same compound?
A: 60%

Q: What about the “% Damage at 14 DAA, no-mesotrione” value (SOLNI, 31 g/ha) of the same compound?
A: 27%

Q: And the colby [33]?
A: 18%

Q: And the “% Damage at 14 DAA, 1 g ai ha^−1 mesotrione” value [33]?
A: 75%

Q: And the “% Damage at 14 DAA, no-mesotrione” value (SOLNI, 63 g/ha)?
A: 48%

Q: And the colby [34]?
A: 3%

Q: And the “% Damage at 14 DAA, 1 g ai ha^−1 mesotrione” value [34]?
A: 92%

Q: And the “% Damage at 14 DAA, no-mesotrione” value (SOLNI, 125 g/ha)?
A: 87%

Q: What about the colby [35] of the same compound?
A: 4%

Q: And the “% Damage at 14 DAA, 1 g ai ha^−1 mesotrione” value [35]?
A: 100%

Q: What about the “% Damage at 14 DAA, no-mesotrione” value (SOLNI, 250 g/ha) of the same compound?
A: 95%

Q: And the colby [36]?
A: 0%

Q: What about the “% Damage at 14 DAA, 1 g ai ha^−1 mesotrione” value [36] of the same compound?
A: 100%

Q: What about the “% Damage at 14 DAA, no-mesotrione” value (SOLNI, 500 g/ha) of the same compound?
A: 100%
